Here are results for six compounds from article PMC6315362, “Cytotoxic Potential of the Novel Horseshoe Crab Peptide Polyphemusin III” (Marine Drugs, 2018).

Usually IC50 stands for the concentration that gives 50% inhibition. A high value points to weaker potency.

Where a SMILES comes first, the peptide text is derived from it. Bridges are numbered along the chain shown (N, C = ends).

For one test, the system named is S. aureus 209P. The test can be described thus: Antimicrobial assay, broth microdilution MIC. The class given is cell-based, Staphylococcus aureus. As to conditions: Gram +, MH medium with NaCl, 24 h 37 °C, median of three independent triplicated experiments. On the procedure:
(§1) Bacterial test cultures were grown in the Mueller-Hinton (MH) medium at 37 °C to mid-log phase and then diluted with the 2 x MH medium supplemented with 1.8% NaCl. 50 µL of the bacterial suspension with a final cell concentration of 10^6 CFU/mL were added to aliquots of 50 µL of the peptide solutions and serially diluted with sterilized 0.1% bovine serum albumin in 96-well flat-bottom polystyrene microplates (Eppendorf, Hamburg, Germany). Bacterial cells were incubated for 24 h at 37 °C and 900 rpm on the plate thermoshaker (Biosan, Riga, Latvia). The minimum inhibitory concentrations (MIC) were determined as the lowest peptide concentration that prevented growth of a test microorganism observed as visible turbidity. The results were expressed as median values of three independent triplicated experiments. Assessment of antimicrobial activities of the recombinant PM III, other polyphemusins, and tachyplesins was conducted against Gram-negative (Escherichia coli ML-35p, Klebsiella pneumoniae (clinical isolate, CI 287), Pseudomonas aeruginosa PAO1) and Gram-positive (Staphylococcus aureus ATCC 29213, Staphylococcus aureus 209P, Bacillus subtilis B-886, Micrococcus luteus B-1314) bacteria.
(In general: In broth dilution the organism is exposed to a series of concentrations in liquid medium.)

Another test relates to S. aureus ATCC 29213. The test can be described thus: Antimicrobial assay, broth microdilution MIC. The class given is cell-based, Staphylococcus aureus. As to conditions: S. aureus ATCC 29213, Gram +, MH medium with NaCl, 24 h 37 °C, median of three independent triplicated experiments. As to the method: as §1
The subject of test [1] is HL-60 (acute promyelocytic leukemia). The class given is cell-based, human. Particulars: MTT after 48 h, RPMI-1640 with 10% FBS, mean ± SD of at least three independent experiments. As to the method:
Cytotoxic activities of PM III, its isoforms, and tachyplesins against seven human cell lines were evaluated. Four cancer (HL-60 acute promyelocytic leukemia, HeLa cervix adenocarcinoma, SK-BR-3 breast adenocarcinoma, A549 lung carcinoma), one transformed (HEK 293T transformed human embryonic kidney), and two normal human cell lines (HEF human embryonic fibroblasts and NHA normal human astrocytes) were used for these experiments. Cytotoxicity was measured by incubating the cells with serial dilutions of PM I, PM II, PM III, TP I, TP II, or TP III samples followed by MTT assay after 48 h. The half-maximal inhibitory concentrations (IC50) were measured as the peptide concentration at which cell viability was reduced by 50% in comparison to untreated cells (Table 3).
The following tumor and transformed cell lines were used in this study: HL-60 (acute promyelocytic leukemia), HeLa (human cervix adenocarcinoma cells), SK-BR-3 (human breast adenocarcinoma cells), A549 (human lung carcinoma cells), HEK 293T (transformed human embryonic kidney cells), HEF (human embryonic fibroblasts), and NHA (normal human astrocytes) were used as normal cell lines. Tumor and transformed cell lines were obtained from the American Type Culture Collection (ATCC; www.atcc.org). Primary cells HEF (normal human embryonic fibroblasts derived from human embryonic stem cells) and NHA (normal human astrocytes derived from human fetal brain tissue) were obtained and cultured according to the corresponding protocol. Briefly, cells were cultured in DMEM/F12 (1:1) or RPMI-1640 medium containing 10% fetal bovine serum (Invitrogen, USA) at 37 °C in the atmosphere containing 5% CO2 and 95% air according to standard mammalian tissue culture protocols and using a sterile technique. All cell lines were tested by using the LookOut® Mycoplasma PCR Detection Kit (Sigma-Aldrich, St. Louis, MO, USA) according to the manufacturer’s protocol and found to be free of Mycoplasma infection.
The colorimetric 3-(4,5-dimethylthiazol-2-yl)-2,5-diphenyltetrazolium bromide (MTT) dye reduction assay was used to determine the cytotoxicity of the polyphemusins and tachyplesins. Cells (3 × 10^3–6 × 10^3 per well) were placed into 96-well plates in Dulbecco’s modified Eagle’s medium (DMEM/F12) supplemented with 10% fetal bovine serum (FBS). After incubation in the atmosphere containing 5% CO2 and 95% air at 37 °C overnight, the media were discarded, and polyphemusins or tachyplesins solutions were added to the cell cultures up to final concentrations of 2.5, 5, 10, 25, and 50 μM in a final volume of 0.1 mL DMEM/F12 with 10% FBS. HL-60 cells (4 × 10^4 in 50 μL) were added to two-time serial dilutions of polyphemusins solutions at a final concentration of 1.25, 2.5, 5, 10, 25, and 50 μM in 50 μL RPMI-1640 with 10% FBS. 48 hours later, 20 μL of MTT (5 mg/mL) was added into each well and the plates were incubated for 3 h at 37 °C. The plates with HL-60 cells were centrifuged for 10 min at 300 g. The media were discarded and 0.1 mL of dimethyl sulfoxide and isopropanol mixture at a ratio of 1:1 (v/v) was added to each well to dissolve the crystallized formazan. The absorbance at 570 nm was measured by a microplate reader (Eppendorf, Hamburg, Germany).

For a further test, the system named is K. pneumoniae (CI 287). The test can be described thus: Antimicrobial assay, broth microdilution MIC. It is filed as cell-based, Klebsiella pneumoniae. Particulars: Gram -, MH medium with NaCl, 24 h 37 °C, median of three independent triplicated experiments. As to the method: as §1
A further test relates to P. aeruginosa PAO1. The test can be described thus: Antimicrobial assay, broth microdilution MIC. The class given is cell-based, Pseudomonas aeruginosa. As to conditions: P. aeruginosa PAO1, Gram -, MH medium with NaCl, 24 h 37 °C, median of three independent triplicated experiments. As to the method:
as §1

A further test has as its system M. luteus B-1314. Description: Antimicrobial assay, broth microdilution MIC. It is filed as cell-based, Micrococcus luteus. Particulars: M. luteus B-1314, Gram +, MH medium with NaCl, 24 h 37 °C, median of three independent triplicated experiments. As to the method:
as §1

On to `CC(C)[C@@H]1NC(=O)[C@H](CCCNC(=N)N)NC(=O)[C@H](Cc2ccccc2)NC(=O)[C@@H](NC(=O)[C@H](Cc2c[nH]c3ccccc23)NC(=O)[C@H](CCCNC(=N)N)NC(=O)[C@@H](N)CCCNC(=N)N)CSSC[C@@H](C(=O)N[C@@H](CCCNC(=N)N)C(=O)O)NC(=O)[C@H](CCCCN)NC(=O)[C@H](CCCNC(=N)N)NC(=O)[C@H](Cc2ccc(O)cc2)NC(=O)[C@@H]2CSSC[C@H](NC1=O)C(=O)N[C@@H](Cc1ccc(O)cc1)C(=O)N[C@@H](CCCNC(=N)N)C(=O)NCC(=O)N[C@@H](Cc1ccccc1)C(=O)N2` [PM I, polyphemusin I] (H-RRWCFRVCYRGFCYRKCR-OH; disulfide 4-17, 8-13 (inferred); N-terminus assumed), for which the MICs in the test on S. aureus 209P worked out at 0.5 µM; against S. aureus ATCC 29213 it was 4 µM; in the test with K. pneumoniae (CI 287), 0.5 µM; against P. aeruginosa PAO1 it was 0.5 µM; with M. luteus B-1314 it was 0.5 µM. The IC50 in test [1] was 7.2 ± 0.5 µM.

As for `CC(C)[C@@H]1NC(=O)[C@H](CCCNC(=N)N)NC(=O)[C@H](Cc2ccccc2)NC(=O)[C@@H](NC(=O)[C@H](Cc2c[nH]c3ccccc23)NC(=O)[C@H](CCCNC(=N)N)NC(=O)[C@@H](N)CCCNC(=N)N)CSSC[C@@H](C(=O)N[C@@H](CCCNC(=N)N)C(=O)O)NC(=O)[C@H](CCCCN)NC(=O)[C@H](CCCNC(=N)N)NC(=O)[C@H](Cc2ccc(O)cc2)NC(=O)[C@@H]2CSSC[C@H](NC1=O)C(=O)N[C@@H](Cc1ccc(O)cc1)C(=O)N[C@@H](CCCCN)C(=O)NCC(=O)N[C@@H](Cc1ccccc1)C(=O)N2` [PM II, polyphemusin II] (H-RRWCFRVCYKGFCYRKCR-OH; disulfide 4-17, 8-13 (inferred); N-terminus assumed), the MICs amounted to 0.5 µM against S. aureus 209P; 4 µM against S. aureus ATCC 29213; 0.5 µM in the test on K. pneumoniae (CI 287); 0.5 µM in the test on P. aeruginosa PAO1; 1 µM against M. luteus B-1314. Besides, the midpoint of inhibition in test [1], the IC50, lay at 7.2 ± 0.5 µM.

For the compound `CC(C)[C@@H]1NC(=O)[C@H](CCCNC(=N)N)NC(=O)[C@H](Cc2ccccc2)NC(=O)[C@@H](NC(=O)CNC(=O)[C@H](CCCNC(=N)N)NC(=O)[C@@H](N)CCCNC(=N)N)CSSC[C@@H](C(=O)N[C@@H](CCCNC(=N)N)C(=O)O)NC(=O)[C@H](CCCNC(=N)N)NC(=O)[C@H](CCC(N)=O)NC(=O)[C@H](Cc2ccccc2)NC(=O)[C@@H]2CSSC[C@H](NC1=O)C(=O)N[C@@H](Cc1ccc(O)cc1)C(=O)N[C@@H](CCCNC(=N)N)C(=O)NCC(=O)N[C@@H](Cc1ccccc1)C(=O)N2` [PM III, polyphemusin III] (H-RRGCFRVCYRGFCFQRCR-OH; disulfide 4-17, 8-13 (inferred); N-terminus assumed), the MICs came to 2 µM against S. aureus 209P; 16 µM with S. aureus ATCC 29213; 2 µM in the test on K. pneumoniae (CI 287); 0.5 µM against P. aeruginosa PAO1; 0.5 µM in the test with M. luteus B-1314. Further, inhibition in test [1] was half-maximal at 2.5 ± 0.1 µM (IC50).

For the compound `CC[C@H](C)[C@@H]1NC(=O)CNC(=O)[C@H](CCCNC(=N)N)NC(=O)[C@H](Cc2ccc(O)cc2)NC(=O)[C@@H]2CSSC[C@H](NC1=O)C(=O)N[C@@H](Cc1ccc(O)cc1)C(=O)N[C@@H](CCCNC(=N)N)C(=O)N[C@@H](CCCNC(=N)N)C(=O)N[C@H](C(=O)N[C@@H](CCCNC(=N)N)C(=O)O)CSSC[C@H](NC(=O)[C@H](Cc1c[nH]c3ccccc13)NC(=O)[C@@H](N)CCCCN)C(=O)N[C@@H](Cc1ccccc1)C(=O)N[C@@H](CCCNC(=N)N)C(=O)N[C@@H](C(C)C)C(=O)N2` [TP I, tachyplesin I] (H-KWCFRVCYRGICYRRCR-OH; disulfide 3-16, 7-12 (inferred); N-terminus assumed), the MICs against S. aureus 209P is 0.5 µM; with S. aureus ATCC 29213 it was 8 µM; in the test on K. pneumoniae (CI 287), 0.5 µM; against P. aeruginosa PAO1 it was 0.5 µM; with M. luteus B-1314, 1 µM. In test [1], this compound gave an IC50 of 4.8 ± 0.3 µM.

For the compound `CC[C@H](C)[C@@H]1NC(=O)CNC(=O)[C@H](CCCNC(=N)N)NC(=O)[C@H](Cc2ccc(O)cc2)NC(=O)[C@@H]2CSSC[C@H](NC1=O)C(=O)N[C@@H](Cc1ccc(O)cc1)C(=O)N[C@@H](CCCNC(=N)N)C(=O)N[C@@H](CCCCN)C(=O)N[C@H](C(=O)N[C@@H](CCCNC(=N)N)C(=O)O)CSSC[C@H](NC(=O)[C@H](Cc1c[nH]c3ccccc13)NC(=O)[C@@H](N)CCCNC(=N)N)C(=O)N[C@@H](Cc1ccccc1)C(=O)N[C@@H](CCCNC(=N)N)C(=O)N[C@@H](C(C)C)C(=O)N2` [TP II, tachyplesin II] (H-RWCFRVCYRGICYRKCR-OH; disulfide 3-16, 7-12 (inferred); N-terminus assumed), the MICs against S. aureus 209P was 0.5 µM; against S. aureus ATCC 29213, 8 µM; against K. pneumoniae (CI 287), 1 µM; against P. aeruginosa PAO1 it was 0.5 µM; in the test on M. luteus B-1314, 1 µM. In addition, the IC50 in test [1] is 5.6 ± 0.5 µM.

For `CC[C@H](C)[C@@H]1NC(=O)CNC(=O)[C@H](CCCNC(=N)N)NC(=O)[C@H](Cc2ccc(O)cc2)NC(=O)[C@@H]2CSSC[C@H](NC1=O)C(=O)N[C@@H](Cc1ccc(O)cc1)C(=O)N[C@@H](CCCNC(=N)N)C(=O)N[C@@H](CCCCN)C(=O)N[C@H](C(=O)N[C@@H](CCCNC(=N)N)C(=O)O)CSSC[C@H](NC(=O)[C@H](Cc1c[nH]c3ccccc13)NC(=O)[C@@H](N)CCCCN)C(=O)N[C@@H](Cc1ccccc1)C(=O)N[C@@H](CCCNC(=N)N)C(=O)N[C@@H](C(C)C)C(=O)N2` [TP III, tachyplesin III] (H-KWCFRVCYRGICYRKCR-OH; disulfide 3-16, 7-12 (inferred); N-terminus assumed), the MICs with S. aureus 209P came to 0.5 µM; against S. aureus ATCC 29213, 16 µM; in the test with K. pneumoniae (CI 287), 0.5 µM; with P. aeruginosa PAO1 it was 0.5 µM; against M. luteus B-1314 it was 2 µM. For the same compound, the IC50 in test [1] was 5 ± 0.4 µM.
